Assay results published in patent US20260193238A1, “PHARMACEUTICAL COMPOUNDS AS PARP7 AND/OR PARP1 INHIBITORS” (Duke Street Bio Limited, priority 2022, published 2026).
pIC50: −log10 of the molar value.

Target: PARP1 (Homo sapiens, UniProt P09874)
Assay: PARP1 biochemical DELFIA assay (auto-PARylation)

Sequence of PARP1 (P09874 whole entry): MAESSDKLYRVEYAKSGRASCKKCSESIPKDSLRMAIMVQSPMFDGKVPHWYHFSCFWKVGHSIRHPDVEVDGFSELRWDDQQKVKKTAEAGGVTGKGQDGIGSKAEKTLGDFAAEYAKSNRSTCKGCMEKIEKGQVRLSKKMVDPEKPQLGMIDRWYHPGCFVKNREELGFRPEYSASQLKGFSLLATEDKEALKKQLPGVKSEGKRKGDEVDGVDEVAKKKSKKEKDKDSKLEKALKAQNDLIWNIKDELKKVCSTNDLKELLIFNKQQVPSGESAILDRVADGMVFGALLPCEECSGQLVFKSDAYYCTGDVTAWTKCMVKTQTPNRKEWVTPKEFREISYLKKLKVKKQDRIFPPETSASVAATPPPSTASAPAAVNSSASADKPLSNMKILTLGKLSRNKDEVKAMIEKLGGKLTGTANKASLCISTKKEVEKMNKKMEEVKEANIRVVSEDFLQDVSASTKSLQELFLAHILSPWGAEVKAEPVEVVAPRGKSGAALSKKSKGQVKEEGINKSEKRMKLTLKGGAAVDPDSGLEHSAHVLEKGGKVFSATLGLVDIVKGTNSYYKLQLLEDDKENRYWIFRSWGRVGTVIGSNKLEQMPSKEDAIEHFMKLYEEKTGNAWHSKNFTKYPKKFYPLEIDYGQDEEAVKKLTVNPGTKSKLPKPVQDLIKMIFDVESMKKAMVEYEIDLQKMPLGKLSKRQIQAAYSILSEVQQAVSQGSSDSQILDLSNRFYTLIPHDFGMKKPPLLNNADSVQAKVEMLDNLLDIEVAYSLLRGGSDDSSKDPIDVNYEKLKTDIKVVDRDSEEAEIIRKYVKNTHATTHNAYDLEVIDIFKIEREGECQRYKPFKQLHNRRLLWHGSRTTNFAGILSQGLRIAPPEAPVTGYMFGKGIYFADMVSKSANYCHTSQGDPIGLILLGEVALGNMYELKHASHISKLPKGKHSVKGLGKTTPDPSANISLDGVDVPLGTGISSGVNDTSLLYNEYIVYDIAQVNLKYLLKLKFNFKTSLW

Structure (SMILES)	pIC50 (Table 1A)	pIC50 (Table 1)
O=C(CCN1CCCC(c2cc(C(F)(F)F)c(=O)[nH]n2)C1)N1CCN(c2ncc(Cl)cn2)CC1 (racemic) [Compound 20rac]	–	6.00 to 7.00
O=C(CCN1CCCC(c2c[nH]c(=O)c(C(F)(F)F)c2)C1)N1CCN(c2ncc(C(F)(F)F)cn2)CC1 (single isomer, unassigned) [Compound 25b]	–	7.00 to 8.00
O=C(CN1CCCC1c1c[nH]c(=O)c(C(F)(F)F)n1)N1CCN(c2ncc(C(F)(F)F)cn2)CC1 (single isomer, unassigned) [Compound 84a, 5-(1-(2-oxo-2-(4-(5-(trifluoromethyl)pyrimidin-2-yl)piperazin-1-yl)ethyl)pyrrolidin-2-yl)-3-(trifluoromethyl)pyrazin-2(1H)-one]	5.00 to 6.00	–
O=C(CN1CCCC1c1cc(C(F)(F)F)c(=O)[nH]n1)N1CCN(c2ncc(F)cc2C(F)(F)F)CC1 (single isomer, unassigned) [Compound 120a]	5.00 to 6.00	–
O=C(CN1CCCC1c1cc(C(F)(F)F)c(=O)[nH]n1)N1CCN(c2ncc(C3CC3)cn2)CC1 (single isomer, unassigned) [Compound 69b]	5.00 to 6.00	–
N#Cc1cnc(N2CCN(C(=O)CN3CCCC3c3c[nH]c(=O)c(C(F)(F)F)c3)CC2)nc1 (single isomer, unassigned) [Compound 76a]	5.00 to 6.00	–
O=C(CN1CCCC1c1cc(C(F)(F)F)c(=O)[nH]n1)N1CCC(c2ncc(C(F)(F)F)cn2)CC1 (single isomer, unassigned) [Compound 70a]	5.00 to 6.00	–
O=C(CN1CCCC1c1c[nH]c(=O)c(C(F)(F)F)c1)N1CCN(c2ncc(C(F)(F)F)cn2)CC1 (single isomer, unassigned) [Compound 60b, 5-(1-(2-oxo-2-(4-(5-(trifluoromethyl)pyrimidin-2-yl)piperazin-1-yl)ethyl)pyrrolidin-2-yl)-3-(trifluoromethyl)pyridin-2(1H)-one]	6.00 to 7.00	–
O=C(CCN1CCCC(c2cc(C(F)(F)F)c(=O)[nH]n2)C1)N1CCN(c2ncc(C(F)(F)F)s2)CC1 (single isomer, unassigned) [Compound 27b]	–	7.00 to 8.00
O=C(CN1CCCCC1c1cc(C(F)(F)F)c(=O)[nH]n1)N1CCN(c2ncc(C(F)(F)F)cn2)CC1 (single isomer, unassigned) [Compound 66b]	< 5.00	–
O=C(CN1CCCC1c1n[nH]c(=O)c2ccccc12)N1CCN(c2ncc(C(F)(F)F)cn2)CC1 (single isomer, unassigned) [Compound 38b, 4-(1-(2-oxo-2-(4-(5-(trifluoromethyl)pyrimidin-2-yl)piperazin-1-yl)ethyl)pyrrolidin-2-yl)phthalazin-1(2H)-one]	5.00 to 6.00	–
O=C(CN1CCCC1c1cc(C(F)(F)F)c(=O)[nH]n1)N1CCN(c2ncc(F)cc2C(F)(F)F)CC1 (single isomer, unassigned) [Compound 120b]	< 5.00	–
N#Cc1cc(C2CCCN2CC(=O)N2CCN(c3nc4cc(Cl)ccc4o3)CC2)n[nH]c1=O (single isomer, unassigned) [Compound 121a]	6.00 to 7.00	–
O=C(CN1CCCC1c1c[nH]c(=O)c(Cl)c1)N1CCN(c2ncc(C(F)(F)F)cn2)CC1 (single isomer, unassigned) [Compound 78a, 3-chloro-5-(1-(2-oxo-2-(4-(5-(trifluoromethyl)pyrimidin-2-yl)piperazin-1-yl)ethyl)pyrrolidin-2-yl)pyridin-2(1H)-one]	6.00 to 7.00	–
N#Cc1ccc(N2CCN(C(=O)CCN3CCCC(c4cc(C(F)(F)F)c(=O)[nH]n4)C3)CC2)nc1 (single isomer, unassigned) [Compound 11b]	–	6.00 to 7.00
CCc1[nH]c(=O)c(C(F)(F)F)cc1C1CCCN1CC(=O)N1CCN(c2ncc(C(F)(F)F)cn2)CC1 (single isomer, unassigned) [Compound 105b]	5.00 to 6.00	–

Structure (SMILES)	pIC50 (Table 1A)	pIC50 (Table 1)
CN(C(=O)CN1CCCC1c1cc(C(F)(F)F)c(=O)[nH]n1)C1CCN(c2ncc(C(F)(F)F)cn2)CC1 (single isomer, unassigned) [Compound 34b]	5.00 to 6.00	–
O=C(CN1Cc2ccccc2C1c1cc(C(F)(F)F)c(=O)[nH]n1)N1CC(Oc2ncc(C(F)(F)F)cn2)C1 (single isomer, unassigned) [Compound 114b]	5.00 to 6.00	–
O=C(CN1CCCC1c1cc(C(F)(F)F)c(=O)[nH]n1)N1CCN(c2ccc(Cl)cn2)CC1 (single isomer, unassigned) [Compound 41b]	5.00 to 6.00	–
O=C(CN1CCCC1c1c[nH]c(=O)c(C(F)(F)F)c1)N1CCN(c2ncc(C(F)(F)F)cn2)CC1 (racemic) [Compound 60rac, 5-(1-(2-oxo-2-(4-(5-(trifluoromethyl)pyrimidin-2-yl)piperazin-1-yl)ethyl)pyrrolidin-2-yl)-3-(trifluoromethyl)pyridin-2(1H)-one]	6.00 to 7.00	–
N#Cc1ccc(N2CCN(C(=O)CN3CCCC3c3c[nH]c(=O)c(C(F)(F)F)c3)CC2)nc1 (single isomer, unassigned) [Compound 77b]	6.00 to 7.00	–
O=C(CCC1CCN(c2ncc(C(F)(F)F)cn2)CC1)N1CCCC(c2cc(C(F)(F)F)c(=O)[nH]n2)C1 (single isomer, unassigned) [Compound 4b]	–	6.00 to 7.00
CNC(=O)c1cnc(N2CCN(C(=O)CN3CCCC3c3cc(C(F)(F)F)c(=O)[nH]n3)CC2)cn1 (single isomer, unassigned) [Compound 54a]	6.00 to 7.00	–
CN(c1ncc(C(F)(F)F)cn1)C1CN(C(=O)CN2CCCC2c2cc(C(F)(F)F)c(=O)[nH]n2)C1 (single isomer, unassigned) [Compound 127b]	5.00 to 6.00	–
CN(c1ncc(C(F)(F)F)cn1)C1CCN(C(=O)CN2CCCC2c2cc(C(F)(F)F)c(=O)[nH]n2)CC1 (single isomer, unassigned) [Compound 107b]	< 5.00	–
O=C(CCN1CCCC(c2cc(C(F)(F)F)c(=O)[nH]n2)C1)N1CCN(c2ccc(Cl)cn2)CC1 (single isomer, unassigned) [Compound 15b]	–	6.00 to 7.00
CC1(C)CC(c2cc(C(F)(F)F)c(=O)[nH]n2)CN(CCC(=O)N2CCN(c3ncc(C(F)(F)F)cn3)CC2)C1 (single isomer, unassigned) [Compound 87a]	6.00 to 7.00	–
O=C(CN1CCCC1c1cc(C(F)(F)F)c(=O)[nH]n1)C1CCN(c2ncc(C(F)(F)F)cn2)CC1 (single isomer, unassigned) [Compound 75b]	< 5.00	–
COC1CC(c2cc(C(F)(F)F)c(=O)[nH]n2)N(CC(=O)N2CCN(c3ncc(C(F)(F)F)cn3)CC2)C1 (single isomer, unassigned) [Compound 138trans2, 6-(4-methoxy-1-(2-oxo-2-(4-(5-(trifluoromethyl)pyrimidin-2-yl)piperazin-1-yl)ethyl)pyrrolidin-2-yl)-4-(trifluoromethyl)pyridazin-3(2H)-one]	< 5.00	–
O=C(CN1Cc2ccccc2C1c1cc(C(F)(F)F)c(=O)[nH]n1)N1CCN(c2ncc(C(F)(F)F)cn2)CC1 (single isomer, unassigned) [Compound 104a, 6-(2-(2-oxo-2-(4-(5-(trifluoromethyl)pyrimidin-2-yl)piperazin-1-yl)ethyl)isoindolin-1-yl)-4-(trifluoromethyl)pyridazin-3(2H)-one]	6.00 to 7.00	–
O=C(CN1CCCC1c1c[nH]c(=O)c(Cl)c1)N1CCN(c2ncc(C(F)(F)F)cn2)CC1 (single isomer, unassigned) [Compound 78b, 3-chloro-5-(1-(2-oxo-2-(4-(5-(trifluoromethyl)pyrimidin-2-yl)piperazin-1-yl)ethyl)pyrrolidin-2-yl)pyridin-2(1H)-one]	< 5.00	–

Second part, the compound after the results:

pIC50 (Table 1A)	pIC50 (Table 1)	Structure (SMILES)
6.00 to 7.00	–	N#Cc1cc(F)cnc1N1CCN(C(=O)CN2CCCC2c2cc(C(F)(F)F)c(=O)[nH]n2)CC1 (single isomer, unassigned) [Compound 146a]
7.00 to 8.00	–	CNC(=O)c1ccc(N2CCN(C(=O)CN3CCC(c4n[nH]c(=O)c5ccccc45)CC3)CC2)cn1 [Compound 50]
6.00 to 7.00	–	CNC(=O)c1ccc(N2CCN(C(=O)CCN3CCC3c3cc(C(F)(F)F)c(=O)[nH]n3)CC2)cn1 (single isomer, unassigned) [Compound 56b]
7.00 to 8.00	–	O=C(CN1CCCC1c1cc(C(F)(F)F)c(=O)[nH]n1)C1CCN(c2ncc(C(F)(F)F)cn2)CC1 (single isomer, unassigned) [Compound 75a]
≥ 8.00	–	N#Cc1ccc2nc(N3CCN(C(=O)CN4CCCC4c4cc(C(F)(F)F)c(=O)[nH]n4)CC3)oc2c1 (single isomer, unassigned) [Compound 96b]
7.00 to 8.00	–	N#Cc1ccc(N2CCN(C(=O)CN3CCCC3c3cc(C(F)(F)F)c(=O)[nH]n3)CC2)nc1 (racemic) [Compound 47rac]
6.00 to 7.00	–	N#Cc1cc(C2CCCN2CC(=O)N2CCN(c3ncc(C(F)(F)F)cn3)CC2)n[nH]c1=O (single isomer, unassigned) [Compound 98a, 3-oxo-6-(1-(2-oxo-2-(4-(5-(trifluoromethyl)pyrimidin-2-yl)piperazin-1-yl)ethyl)pyrrolidin-2-yl)-2,3-dihydropyridazine-4-carbonitrile]
6.00 to 7.00	–	O=C(CN1CCCC1c1cc(C(F)(F)F)c(=O)[nH]n1)NC1CCN(c2ncc(C(F)(F)F)cn2)CC1 (single isomer, unassigned) [Compound 33b]
6.00 to 7.00	–	COC1CC(c2cc(C(F)(F)F)c(=O)[nH]n2)N(CC(=O)N2CCN(c3ncc(C(F)(F)F)cn3)CC2)C1 (single isomer, unassigned) [Compound 138trans1, 6-(4-methoxy-1-(2-oxo-2-(4-(5-(trifluoromethyl)pyrimidin-2-yl)piperazin-1-yl)ethyl)pyrrolidin-2-yl)-4-(trifluoromethyl)pyridazin-3(2H)-one]
7.00 to 8.00	–	O=C(CN1CCCC1c1cc(C(F)(F)F)c(=O)[nH]n1)N1CCN(c2cc(Cl)c(F)cn2)CC1 (single isomer, unassigned) [Compound 80b]
7.00 to 8.00	–	N#Cc1ccc2oc(N3CCN(C(=O)CN4CCCC4c4cc(C(F)(F)F)c(=O)[nH]n4)CC3)nc2c1 (single isomer, unassigned) [Compound 100a]
7.00 to 8.00	–	O=C(CN1CCCC1c1cc(C(F)(F)F)c(=O)[nH]n1)N1CCN(c2cnc(C(F)(F)F)cn2)CC1 (single isomer, unassigned) [Compound 45a]
7.00 to 8.00	–	O=C(CN1CCCC1c1cc(C(F)(F)F)c(=O)[nH]n1)N1CCN(c2ccc(F)cn2)CC1 (single isomer, unassigned) [Compound 46a]
7.00 to 8.00	–	O=C(CN1CCCC1c1cc(C(F)(F)F)c(=O)[nH]n1)N1CCN(c2ncc(F)cn2)CC1 (single isomer, unassigned) [Compound 43a]
